Data: patent US8513232B2, “Substituted spirocyclic piperidine derivatives as histamine-3 (H3) receptor ligands” (Cephalon, Inc., priority 2008, dated 2013)
Read-outs that look alike come from different tables or passages of the source.

How the values were obtained:
[1] = molecular target: T1, human H3 receptor (Homo sapiens, UniProt Q9Y5N1); assay: Human H3 radioligand binding ([3H]-N-alpha-methylhistamine, SPA)
T1 construct: expressed in transfected cells
Summary of the method: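 SPA competition binding on membranes from CHO cells stably expressing human H3 receptor (10 μg protein/well) with ~1 nM [3H]-N-alpha-methylhistamine and compound at 0.01 nM-30 μM. Incubation 4 h at room temperature in 50 mM Tris-HCl pH 7.4, 5 mM MgCl2, 0.1% BSA; non-specific binding defined with 10 μM clobenpropit.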

[2] = molecular target: T2, rat histamine H3 receptor (Rattus norvegicus, UniProt Q9QYN8); assay: Rat H3 radioligand binding ([3H]-N-alpha-methylhistamine, SPA)
T2 construct: encoding the entire 445-amino-acid rat histamine H3 receptor; expressed in transfected cells; membrane preparation
T2 sequence (Q9QYN8 whole entry): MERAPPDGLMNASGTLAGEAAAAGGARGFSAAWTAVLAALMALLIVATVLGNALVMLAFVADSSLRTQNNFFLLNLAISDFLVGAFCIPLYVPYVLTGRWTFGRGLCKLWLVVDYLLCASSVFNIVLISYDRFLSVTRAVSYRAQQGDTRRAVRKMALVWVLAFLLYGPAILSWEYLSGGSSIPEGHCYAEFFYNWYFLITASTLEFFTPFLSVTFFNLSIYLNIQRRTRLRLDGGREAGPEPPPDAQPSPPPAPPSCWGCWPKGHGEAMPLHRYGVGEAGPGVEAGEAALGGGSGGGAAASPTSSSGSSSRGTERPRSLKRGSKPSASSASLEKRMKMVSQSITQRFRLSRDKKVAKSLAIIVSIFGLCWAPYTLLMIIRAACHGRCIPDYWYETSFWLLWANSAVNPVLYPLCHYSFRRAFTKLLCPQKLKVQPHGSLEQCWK
Summary of the method: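 Membranes from CHO-A3 cells stably expressing full-length rat H3 receptor (10 μg protein/well) incubated 4 h at room temperature, protected from light, with ~1 nM [3H]-N-alpha-methylhistamine and compound (0.01 nM-30 μM) in 50 mM Tris HCl pH 7.4, 5 mM MgCl2, 0.1% BSA. Binding read by SPA; 10 μM clobenpropit defined non-specific binding.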

[3] = Human H3 binding, Table B, Examples 136-362, read-out: hum H3 binding Ki
[4] = Rat H3 binding, Table B, Examples 136-362, read-out: rat H3 binding Ki
[5] = human H3 binding, Table D, read-out: Human H3 Ki
[6] = rat H3 binding, Table D, read-out: Rat H3 Ki
[7] = Table A, human H3 binding, read-out: Human Ki
[8] = Table A, rat H3 binding, read-out: Rat Ki

T1 sequence (Q9Y5N1 whole entry): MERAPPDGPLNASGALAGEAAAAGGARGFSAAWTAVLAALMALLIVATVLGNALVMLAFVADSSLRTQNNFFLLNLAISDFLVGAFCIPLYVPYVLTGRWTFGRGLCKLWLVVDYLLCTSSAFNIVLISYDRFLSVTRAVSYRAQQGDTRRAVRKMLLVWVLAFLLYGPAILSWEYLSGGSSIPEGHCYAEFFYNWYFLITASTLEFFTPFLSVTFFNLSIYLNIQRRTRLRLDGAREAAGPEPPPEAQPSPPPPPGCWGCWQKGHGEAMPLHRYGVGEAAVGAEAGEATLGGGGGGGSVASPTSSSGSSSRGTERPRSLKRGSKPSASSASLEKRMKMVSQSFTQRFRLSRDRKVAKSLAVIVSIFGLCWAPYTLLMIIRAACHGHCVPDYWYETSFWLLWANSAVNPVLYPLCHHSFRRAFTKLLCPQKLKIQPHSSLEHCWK

| Structure (SMILES) | melting point [°C] | Ki [1, 3] [nM] | Ki [2, 4] [nM] | other results |
| --- | --- | --- | --- | --- |
| O=C(c1ccc(Nc2ccc3c(c2)COC2(CCN(C4CCC4)CC2)O3)cc1)N1CCOCC1 [Example 172] | 79 to 84 | < 200 | < 200 |  |
| O=C1N(c2ccccc2)CCN1c1ccc2c(c1)COC1(CCN(C3CCC3)CC1)O2 [Example 207] | 195 to 197 | < 200 | < 200 |  |
| N#Cc1ccc(NC(=O)Nc2ccc3c(c2)COC2(CCN(C4CCC4)CC2)O3)cc1 [Example 157] | 170 to 172 | < 200 | < 200 |  |
| CS(=O)(=O)c1ccc(-c2ccc3c(c2)COC2(CCN(C4CCC4)CC2)O3)s1 [Example 652] | 159 to 161 |  |  | Ki [1, 5]: < 200 nM; Ki [2, 6]: < 200 nM |
| N#Cc1ccc(C(=O)Nc2ccc3c(c2)COC2(CCN(C4CCC4)CC2)O3)cc1 [Example 154] | 206 to 208 | < 200 | < 200 |  |
| c1nnc(CCc2ccc3c(c2)COC2(CCN(C4CCC4)CC2)O3)o1 [Example 675] | 83 to 85 |  |  | Ki [1, 5]: < 200 nM; Ki [2, 6]: < 200 nM |
| CNC(=O)c1ccc(Oc2ccc3c(c2)CCC2(CCN(C4CCC4)CC2)O3)cc1 [Example 282] | 179 to 181 | < 200 | < 200 |  |
| CN1CC(COc2ccc3c(c2)CCC2(CCN(C4CCC4)CC2)O3)CC1=O (stereo not drawn) [Example 519] | 234 to 236 |  |  | Ki ([1]; read-out: Human H3 Ki): < 200 nM; Ki ([2]; read-out: Rat H3 kI): < 200 nM |
| Cc1nnc(CCc2ccc3c(c2)COC2(CCN(C4CCC4)CC2)O3)o1 [Example 673] | 87 to 89 |  |  | Ki [1, 5]: < 200 nM; Ki [2, 6]: < 200 nM |
| CC(C)NS(=O)(=O)c1ccc(-c2ccc3c(c2)COC2(CCN(C4CCC4)CC2)O3)cc1 [Example 35] | 85 to 90 |  |  | Ki [1, 7]: < 200 nM; Ki [2, 8]: < 200 nM |
| O=C(Nc1ccc2c(c1)CCC1(CCN(C3CCC3)CC1)O2)c1cnnc2ccccc12 [Example 265] | 233 to 235 |  |  | Ki [1]: < 200 nM; Ki [2]: < 200 nM |
| COCCNC(=O)c1ccc(-c2ccc3c(c2)COC2(CCN(C4CCC4)CC2)O3)cc1Cl [Example 330] | 234 to 235 | < 200 | < 200 |  |
| O=C1CCN1c1ccc2c(c1)CCC1(CCN(C3CCC3)CC1)O2 [Example 120] | 195 to 197 |  |  | Ki [1, 7]: < 200 nM; Ki [2, 8]: < 200 nM |
| O=C(N[C@H]1CCOC1)c1ccc(-c2ccc3c(c2)COC2(CCN(C4CCC4)CC2)O3)cc1Cl [Example 611] | 185 to 187 |  |  | Ki [1, 5]: < 200 nM; Ki [2, 6]: < 200 nM |
| CN(C)C(=O)c1ccc(-c2ccc3c(c2)COC2(CCN(C4CCC4)CC2)O3)cc1F [Example 40] | 172.9 to 173.5 |  |  | Ki [1, 7]: < 200 nM; Ki [2, 8]: < 200 nM |
| COc1ccc(/C=C/c2ccc3c(c2)COC2(CCN(C4CCC4)CC2)O3)nn1 [Example 510] | 168 to 170 |  |  | Ki ([1]; read-out: Human H3 Ki): < 200 nM; Ki ([2]; read-out: Rat H3 kI): < 200 nM |
| c1cc2c(cc1-c1cn[nH]c1)COC1(CCN(C3CCC3)CC1)O2 [Example 750] | 205 to 207 |  |  | Ki [1, 5]: < 200 nM; Ki [2, 6]: < 200 nM |
| Cc1cscc1-c1ccc2c(c1)COC1(CCN(C3CCC3)CC1)O2 [Example 785] | 91 to 93 |  |  | Ki [1, 5]: < 200 nM; Ki [2, 6]: < 200 nM |
| Cn1ccc(-c2ccc3c(c2)COC2(CCN(C4CCC4)CC2)O3)cc1=O [Example 547] | 208 to 209 |  |  | Ki ([1]; read-out: Human H3 Ki): < 200 nM; Ki ([2]; read-out: Rat H3 kI): < 200 nM |
| O=C(c1ccc(-c2ccc3c(c2)CCC2(CCN(C4CCC4)CC2)O3)cc1)N1CC[C@H](O)C1 [Example 182] | 193 to 195 | < 200 | < 200 |  |
| c1ccc(COc2ccc3c(c2)CCC2(CCN(C4CCC4)CC2)O3)cc1 [Example 189] | 102 to 103 | < 200 | < 200 |  |
| Cc1c(-c2ccc3c(c2)COC2(CCN(C4CCC4)CC2)O3)ccc(=O)n1C [Example 760] | 59 to 61 |  |  | Ki [1, 5]: < 200 nM; Ki [2, 6]: < 200 nM |
| O=C(c1ccc(-c2ccc3c(c2)COC2(CCN(C4CCC4)CC2)O3)cc1)N1CC[C@H](O)C1 [Example 148] | 178 to 181 | < 200 | < 200 |  |
| O=C(N1CCOCC1)N1CCN(c2ccc3c(c2)COC2(CCN(C4CCC4)CC2)O3)CC1 [Example 310] | 174 to 176 | < 200 | < 200 |  |
| CNC(=O)c1ccc(-c2ccc3c(c2)CCC2(CCN(C4CCC4)CC2)O3)cc1Cl [Example 232] | 144.2 | < 200 | < 200 |  |
